Data reported in US4444775A, “Substituted imidazo[1,5-A]pyridines” (Ciba-Geigy Corporation, priority 1982, dated 1984).

Columns and labels:
[1] = system: bleeding time; test: prolongation of bleeding time in the rat; format: in vivo; conditions: rats, dose of about 1 mg/kg i.p. or lower
Text: For example, in thromboembolism, specific inhibition of the enzyme thromboxane synthetase reduces arachidonic acid induced platelet aggregation involved in clot formation. Experimentally, prolongation of bleeding time in the rat is indicative of a beneficial antithrombotic effect.

[2] = system: plasma thromboxane B2 and 6-keto-PGF1α; test: reduction of plasma levels of thromboxane in vivo after arachidonic acid challenge; conditions: guinea pig
Protocol: The reduction of plasma levels of thromboxane is determined in vivo on administration of the test compound to guinea pigs in the following manner:
Guinea pigs are dosed with vehicle or test drug and injected intraperitoneally with arachidonic acid (40 mg/kg) 2 hours later. Blood is collected for analysis 1 hour after the arachidonic acid challenge. A single aliquot of each plasma sample is assayed for thromboxane B2 and another aliquot for 6-keto-PGF1 α, the stable metabolites of thromboxane A2 and prostacyclin (PGI2) respectively.

[3] = target: T1, thromboxane synthetase from lysed human platelets (Homo sapiens, UniProt P24557); test: in vitro inhibition of the thromboxane synthetase enzyme (TxB2/PGF2α+β ratio from 14C-arachidonic acid); format: biochemical; conditions: human platelet microsomal enzyme, 30 minutes incubation
T1 construct: crude microsomal preparation of thromboxane synthetase from lysed human platelets; from tissue; host or cells: human platelets, lysed; crude microsomal preparation
T1 sequence (P24557 1-533): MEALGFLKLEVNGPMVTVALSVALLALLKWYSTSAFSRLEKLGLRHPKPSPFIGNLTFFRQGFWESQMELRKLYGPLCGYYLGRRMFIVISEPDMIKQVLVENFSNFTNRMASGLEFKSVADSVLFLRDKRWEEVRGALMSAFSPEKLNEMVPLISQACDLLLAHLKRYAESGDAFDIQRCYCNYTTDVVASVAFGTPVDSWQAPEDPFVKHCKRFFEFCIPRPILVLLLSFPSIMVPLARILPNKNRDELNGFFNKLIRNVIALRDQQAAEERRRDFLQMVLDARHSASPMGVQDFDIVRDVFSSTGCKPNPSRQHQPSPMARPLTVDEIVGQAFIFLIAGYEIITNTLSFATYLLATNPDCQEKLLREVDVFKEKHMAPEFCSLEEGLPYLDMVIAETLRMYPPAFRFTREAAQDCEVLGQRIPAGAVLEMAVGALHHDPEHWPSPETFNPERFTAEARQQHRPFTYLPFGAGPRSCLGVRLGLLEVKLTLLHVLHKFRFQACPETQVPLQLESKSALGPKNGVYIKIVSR
Protocol: Res. Comm. 74, 1432 (1977); the testing procedure is as follows:
The test compound (dissolved in buffer, or if necessary, in a small amount of ethanol) is added to the incubation medium. […] The radioactive products and excess substrate are extracted into ethyl acetate; the extract is evaporated to dryness; the residue is dissolved in acetone, spotted on thin-layer plates and chromatographed in the solvent system toluene: acetone: glacial acetic acid (100 volumes: 100 volumes: 3 volumes).

[4] = target: T2, prostaglandin cyclooxygenase (sheep seminal vesicle microsomes) (Ovis aries, UniProt P05979); test: in-vitro effect on prostaglandin cyclooxygenase (conversion of 14C-arachidonic acid to PGE2); format: biochemical; conditions: read-out: IC50 for inhibition of cyclooxygenase
T2 construct: Lyophilized sheep seminal vesicle microsomes are utilized as the prostaglandin-synthesizing enzyme preparation; from tissue; host or cells: sheep seminal vesicle microsomes, lyophilized
T2 sequence (P05979 25-600): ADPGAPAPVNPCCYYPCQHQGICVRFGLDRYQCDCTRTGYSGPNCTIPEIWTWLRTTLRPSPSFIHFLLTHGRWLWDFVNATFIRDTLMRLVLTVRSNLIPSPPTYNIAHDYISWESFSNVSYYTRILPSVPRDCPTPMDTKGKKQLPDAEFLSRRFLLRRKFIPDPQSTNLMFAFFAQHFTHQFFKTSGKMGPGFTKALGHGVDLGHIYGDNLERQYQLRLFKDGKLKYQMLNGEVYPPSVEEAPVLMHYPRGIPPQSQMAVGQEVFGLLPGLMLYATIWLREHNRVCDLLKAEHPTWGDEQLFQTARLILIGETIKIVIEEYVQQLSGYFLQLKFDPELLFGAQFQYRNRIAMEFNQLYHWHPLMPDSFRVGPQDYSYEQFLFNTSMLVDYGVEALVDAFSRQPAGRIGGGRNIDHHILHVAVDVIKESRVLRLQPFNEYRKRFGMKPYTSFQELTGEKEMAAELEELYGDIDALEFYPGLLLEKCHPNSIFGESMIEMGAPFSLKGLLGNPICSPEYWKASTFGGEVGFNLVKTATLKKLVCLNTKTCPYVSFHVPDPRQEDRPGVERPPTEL
Protocol: The in-vitro effect on prostaglandin cyclooxygenase is measured by a modification of the method of Takeguchi et al described in Biochemistry 10, 2372 (1971); the testing procedure is as follows: Lyophilized sheep seminal vesicle microsomes are utilized as the prostaglandin-synthesizing enzyme preparation. The conversion of ^14 C-arachidonic acid to PGE2 is measured. Test compounds (dissolved in buffer, or if necessary, in small amount of ethanol) are added to the incubation mixture. The prostaglandins are extracted and separated by thin-layer chromatography; the plates are scanned, the radioactive zones corresponding to PGE2 are transferred to liquid scintillation vials and counted for radioactivity. IC50 values for inhibition are determined graphically as the concentration of test compound causing a 50% reduction in the amount of PGE2 synthesized.

[5] = system: arachidonic acid induced pulmonary obstruction; test: protection against sudden death due to arachidonic acid induced pulmonary obstruction; format: in vivo; conditions: mice, orally, 100 mg/kg
[6] = target: T3, prostacyclin (PGI2) synthetase (microsomal fraction of bovine aorta) (Bos taurus, UniProt Q29626); test: in-vitro effect on prostacyclin (PGI2) synthetase (6-keto-PGF1α/PGE2 ratio); format: biochemical; conditions: read-out: IC50 for inhibition of prostacyclin synthetase
T3 construct: crude PGI2 synthetase in the form of a microsomal fraction of bovine aorta; from tissue; host or cells: bovine aorta, microsomal fraction
T3 sequence (Q29626 1-500): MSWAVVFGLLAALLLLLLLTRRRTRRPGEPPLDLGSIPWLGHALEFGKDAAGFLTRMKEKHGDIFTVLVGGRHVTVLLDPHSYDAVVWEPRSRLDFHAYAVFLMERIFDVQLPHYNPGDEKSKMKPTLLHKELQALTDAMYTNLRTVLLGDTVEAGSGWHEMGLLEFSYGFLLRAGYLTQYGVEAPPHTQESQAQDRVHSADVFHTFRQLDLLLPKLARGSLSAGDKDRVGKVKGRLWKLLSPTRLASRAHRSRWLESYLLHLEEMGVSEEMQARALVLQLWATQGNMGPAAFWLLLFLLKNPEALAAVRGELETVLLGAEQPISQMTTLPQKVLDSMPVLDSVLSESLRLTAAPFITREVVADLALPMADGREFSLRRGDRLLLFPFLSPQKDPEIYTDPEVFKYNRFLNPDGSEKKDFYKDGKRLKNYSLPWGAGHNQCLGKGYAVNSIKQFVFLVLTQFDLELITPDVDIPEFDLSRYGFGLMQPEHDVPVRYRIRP
Protocol: The in-vitro effect on prostacyclin (PGI2) synthetase is measured analogous to the method of Sun et al., Prostaglandins 14, 1055 (1977);
The testing procedure is as follows:
^14 C-Arachidonic acid is incubated with an enzyme mixture consisting of solubilized and partially purified prostaglandin cyclo-oxygenase from sheep seminal vesicles and crude PGI2 synthetase in the form of a microsomal fraction of bovine aorta.
Test compound (dissolved in buffer, or if necessary, in a small amount of ethanol) is placed in the incubation medium. The reaction mixture is incubated in 100 mM Tris HCl (pH 7.5) for 30 minutes at 37° C., acidified to pH 3 and extracted into ethyl acetate. The extract is evaporated to dryness; the residue is dissolved in acetone, spotted on thin-layer plates and chromatographed in a solvent system described by Sun et al. The radioactive zones are located with a scanner; those corresponding to 6-keto-PGF1 α (a stable end product of prostacyclin biotrasformation) and PGE2 are transferred to liquid scintillation vials and counted. The ratio of counts for 6-keto-PGF1 α/PGE2 is calculated for each concentration of test compound used. IC50 values for inhibition are determined graphically as the concentration of test compound at which the ratio of 6-keto-PGF1 α/PGE2 is reduced to 50% of the control value.

## O=C(O)CCCCCc1cccc2cncn12 [Example 2, 5-(5-carboxypentyl)-imidazo[1,5-a]pyridine]
[1]
  bleeding time: prolongs bleeding time
[2]; oral dose 0.25 mg/kg or higher doses
  decrease with respect to prostacyclin (plasma 6-keto-PGF1α): no significant decrease
[2]; oral dose as low as 0.25 mg/kg
  reduction of plasma levels of thromboxane B2: over 50%
[3]
  IC50: ~3 nM
[4]
  IC50: > 100 µM
[5]
  protection against sudden death: protects against sudden death
[6]
  IC50: > 100 µM
